Assay results published in publication PMC4965013, “Open Source Drug Discovery with the Malaria Box Compound Collection for Neglected Diseases and Beyond” (PLoS Pathogens, 2016).
Read-outs that look alike come from different tables or passages of the source.

What was measured:
P. falciparum 3D7 = experiment: [3H]-hypoxanthine growth inhibition, modified HCO3- or O2; assay type: cell-based; settings: for IC50: Plasmodium falciparum
[1] = system: P. falciparum 3D7 trophozoites; experiment: Metabolomic fingerprint profiling LC-MS; assay type: cell-based, Plasmodium falciparum; design: UDP-D-glucose / ADP-D-glucose: unit not given here; settings: for Acetyllysine / N-acetyl-L-ornithine / N-carbamoyl-L-aspartate / NADPH / dAMP / dCMP / dTDP / dTMP / dTTP / dihydroorotate / orotate / DLH / DLS/SDL/SID / PD / PEE / PVNF / 3-phosphoglycerate / ADP-D-glucose / ATP / CDP / D-sedoheptulose-1/7-phosphate / FAD / GMP / NAD+ / NADP+ / Octoluse Bisphosphate / Pyroglutamic acid / UDP-D-glucose / UDP-D-glucuronate / UDP-N-acetyl-glucosamine / UDP / UMP / UTP / a-ketoglutarate / citrate/isocitrate / cytidine / dATP / dGMP/AMP / fumarate / glucose-1/6-phosphate / glycerate / guanine / guanosine / hypoxanthine / indole / inosine / nicotinate / ornithine / phosphoenolpyruvate / pyruvate / ribose-phosphate / sarcosine/alanine / sn-glycerol-3-phosphate / succinate/methylmalonic acid / uridine / xanthosine: S2 Table Metabolomics; for Acetyllysine: metabolite Acetyllysine; for N-acetyl-L-ornithine: metabolite N-acetyl-L-ornithine; for N-carbamoyl-L-aspartate: metabolite N-carbamoyl-L-aspartate; for NADPH: metabolite NADPH; for dAMP: metabolite dAMP; for dCMP: metabolite dCMP; for dTDP: metabolite dTDP; for dTMP: metabolite dTMP; for dTTP: metabolite dTTP; for dihydroorotate: metabolite dihydroorotate; for orotate: metabolite orotate; for DLH: peptide DLH; for DLS/SDL/SID: peptide DLS/SDL/SID; for PD: peptide PD; for PEE: peptide PEE; for PVNF: peptide PVNF; for 3-phosphoglycerate: metabolite 3-phosphoglycerate; for ADP-D-glucose: metabolite ADP-D-glucose; for ATP: metabolite ATP; for CDP: metabolite CDP; for CDP / D-sedoheptulose-1/7-phosphate / GMP / Octoluse Bisphosphate / UDP / UMP / UTP / citrate/isocitrate / dGMP/AMP / fumarate / glucose-1/6-phosphate / glycerate / guanine / guanosine / inosine / pyruvate / sarcosine/alanine / succinate/methylmalonic acid / uridine / xanthosine: change in metabolite level after compound treatment; for D-sedoheptulose-1/7-phosphate: metabolite D-sedoheptulose-1/7-phosphate; for FAD: metabolite FAD; for GMP: metabolite GMP; for NAD+: metabolite NAD+; for NADP+: metabolite NADP+; for Octoluse Bisphosphate: metabolite Octoluse Bisphosphate; for Pyroglutamic acid: metabolite Pyroglutamic acid; for UDP-D-glucose: metabolite UDP-D-glucose; for UDP-D-glucuronate: metabolite UDP-D-glucuronate; for UDP-N-acetyl-glucosamine: metabolite UDP-N-acetyl-glucosamine; for UDP: metabolite UDP; for UMP: metabolite UMP; for UTP: metabolite UTP; for a-ketoglutarate: metabolite a-ketoglutarate; for citrate/isocitrate: metabolite citrate/isocitrate; for cytidine: metabolite cytidine; for dATP: metabolite dATP; for dGMP/AMP: metabolite dGMP/AMP; for fumarate: metabolite fumarate; for glucose-1/6-phosphate: metabolite glucose-1/6-phosphate; for glycerate: metabolite glycerate; for guanine: metabolite guanine; for guanosine: metabolite guanosine; for hypoxanthine: metabolite hypoxanthine; for indole: metabolite indole; for inosine: metabolite inosine; for 2_3-Diphosphoglyceric acid / 4-phosphopantothenate / 6-phospho-D-gluconate / FMN / IMP / Pyrophosphate / Sedoheptoluse bisphosphate / cyclic-AMP / glutathione disulfide / lactate / myo-inositol: metabolite level change after treatment; for nicotinate: metabolite nicotinate; for ornithine: metabolite ornithine; for phosphoenolpyruvate: metabolite phosphoenolpyruvate; for pyruvate: metabolite pyruvate; for ribose-phosphate: metabolite ribose-phosphate; for sarcosine/alanine: metabolite sarcosine/alanine; for sn-glycerol-3-phosphate: metabolite sn-glycerol-3-phosphate; for succinate/methylmalonic acid: metabolite succinate/methylmalonic acid; for uridine: metabolite uridine; for xanthosine: metabolite xanthosine
P. falciparum = experiment: EC50 listed in S2 Table Metabolomics (used to set the concentration tested); assay type: cell-based; settings: Plasmodium falciparum; EC50 used for Factor_XEC50 in metabolomics; read-out: EC50_nM
[2] = 3D7, read-out: P. falciparum 3D7 IC50 1% O2, 1% O2 hypoxia
[3] = 3D7, read-out: P. falciparum 3D7 IC50 5% O2
[4] = 3D7, read-out: P. falciparum 3D7 IC50 HCO3- (2g/L), standard media
[5] = 3D7, HCO3- reduced media, read-out: P. falciparum 3D7 IC50 HCO3- reduced

**Q.** Which results are given for `CCN(CC)CCNc1ccnc2cc(Cl)ccc12` [MMV006087]?
**A.** fold change (IC50normal/ IC50hypoxia) (P. falciparum 3D7): 2.2; fold change (IC50reduced/IC50normal) (P. falciparum 3D7): 2.0; IC50 (P. falciparum 3D7; [2]): 18 nM; IC50 (P. falciparum 3D7; [3]): 40 nM; IC50 (P. falciparum 3D7; [4]): 46 nM; IC50 (P. falciparum 3D7; [5]): 94 nM; Acetyllysine [1]: -0.6709; N-acetyl-L-ornithine [1]: -0.3158; N-carbamoyl-L-aspartate [1]: 0.2408; NADPH [1]: 1.332; dAMP [1]: 1.732; dCMP [1]: 0.4187; dTDP [1]: 0.1999; dTMP [1]: 1.797; dTTP [1]: -0.4289; dihydroorotate [1]: 0.1541; orotate [1]: -0.4098; DLH [1]: -1.609; DLS/SDL/SID [1]: -1.645; PD [1]: -0.5241; PEE [1]: 0.8188; PVNF [1]: -2.104; 3-phosphoglycerate [1]: -0.1063; ADP-D-glucose [1]: 0.134; ATP [1]: -0.2173; CDP [1]: 0.2969; D-sedoheptulose-1/7-phosphate [1]: -0.3976; FAD [1]: -0.08711; GMP [1]: 0.04645; NAD+ [1]: -0.09966; NADP+ [1]: 0.09641; Octoluse Bisphosphate [1]: 0.7357; Pyroglutamic acid [1]: -0.2816; UDP-D-glucose [1]: -0.03029; UDP-D-glucuronate [1]: -0.03795; UDP-N-acetyl-glucosamine [1]: -0.1287; UDP [1]: -0.01186; UMP [1]: -0.1675; UTP [1]: -0.4234; a-ketoglutarate [1]: -1.012; citrate/isocitrate [1]: -0.5672; cytidine [1]: 0.4735; dATP [1]: -0.2015; dGMP/AMP [1]: 1.373; fumarate [1]: -0.3281; glucose-1/6-phosphate [1]: -0.3642; glycerate [1]: -1.245; guanine [1]: -0.2729; guanosine [1]: -1.735; hypoxanthine [1]: 0.3732; indole [1]: 0.02177; inosine [1]: -0.5366; 2_3-Diphosphoglyceric acid [1]: -0.3682; 4-phosphopantothenate [1]: -0.474; 6-phospho-D-gluconate [1]: -0.3619; FMN [1]: 0.01066; IMP [1]: -0.05089; Pyrophosphate [1]: -0.2464; Sedoheptoluse bisphosphate [1]: 1.503; cyclic-AMP [1]: -0.4094; glutathione disulfide [1]: -0.5661; lactate [1]: -0.8938; myo-inositol [1]: -1.322; nicotinate [1]: -1.055; ornithine [1]: 0.317; phosphoenolpyruvate [1]: -0.3268; pyruvate [1]: -1.42; ribose-phosphate [1]: -0.4165; sarcosine/alanine [1]: -0.8094; sn-glycerol-3-phosphate [1]: -0.2401; succinate/methylmalonic acid [1]: -0.2149; uridine [1]: -1.004; xanthosine [1]: -1.365; EC50 (P. falciparum): 58.1 nM

**Q.** What does the source list for `O=C(NCC(c1ccsc1)N1CCCCCC1)c1ccc(C(F)(F)F)cc1` (stereo not drawn) [MMV396672]?
**A.** fold change (IC50reduced/IC50normal) (P. falciparum 3D7): 2.6; IC50 (P. falciparum 3D7; [4]): 425 nM; IC50 (P. falciparum 3D7; [5]): 1120 nM; Acetyllysine [1]: -0.3412; N-acetyl-L-ornithine [1]: 0.04406; N-carbamoyl-L-aspartate [1]: 1.501; NADPH [1]: 1.59; dAMP [1]: -0.1547; dCMP [1]: -0.6707; dTDP [1]: -0.2295; dTMP [1]: -0.1132; dTTP [1]: -0.02683; dihydroorotate [1]: 1.3113; orotate [1]: -0.2374; DLH [1]: 0.2454; DLS/SDL/SID [1]: 0.4945; PD [1]: -0.2062; PEE [1]: 0.3834; PVNF [1]: 0.4792; 3-phosphoglycerate [1]: 0.01662; ADP-D-glucose [1]: 0.1495; ATP [1]: 0.06805; CDP [1]: -0.3083; D-sedoheptulose-1/7-phosphate [1]: -0.1874; FAD [1]: 0.01705; GMP [1]: -0.121; NAD+ [1]: -0.07697; NADP+ [1]: 0.1144; Octoluse Bisphosphate [1]: -0.0874; Pyroglutamic acid [1]: -0.2718; UDP-D-glucose [1]: 0.05361; UDP-D-glucuronate [1]: 0.1556; UDP-N-acetyl-glucosamine [1]: -0.04862; UDP [1]: -0.327; UMP [1]: -1.306; UTP [1]: -0.1422; a-ketoglutarate [1]: -0.6396; citrate/isocitrate [1]: -0.6773; cytidine [1]: 0.6424; dATP [1]: 0.05116; dGMP/AMP [1]: -0.08656; fumarate [1]: -0.2118; glucose-1/6-phosphate [1]: 0.01846; glycerate [1]: -1.2197; guanine [1]: -0.7457; guanosine [1]: -1.987; hypoxanthine [1]: 0.2737; indole [1]: 0.1693; inosine [1]: -0.393; 2_3-Diphosphoglyceric acid [1]: -0.1323; 4-phosphopantothenate [1]: -0.391; 6-phospho-D-gluconate [1]: -0.02288; FMN [1]: 0.06346; IMP [1]: -0.1805; Pyrophosphate [1]: -0.05249; Sedoheptoluse bisphosphate [1]: -0.2083; cyclic-AMP [1]: -0.07949; glutathione disulfide [1]: -0.4263; lactate [1]: -0.6757; myo-inositol [1]: -1.04; nicotinate [1]: -1.005; ornithine [1]: 0.1454; phosphoenolpyruvate [1]: -0.3004; pyruvate [1]: -1.162; ribose-phosphate [1]: 0.03374; sarcosine/alanine [1]: -0.5204; sn-glycerol-3-phosphate [1]: -0.07409; succinate/methylmalonic acid [1]: -0.4318; uridine [1]: -0.8839; xanthosine [1]: -0.8196; EC50 (P. falciparum): 433 nM

**Q.** What does the source list for `Cc1cc(Nc2ccc(Cl)cc2)n2nc(C(F)(F)F)nc2n1` [MMV011256]?
**A.** fold change (IC50normal/ IC50hypoxia) (P. falciparum 3D7): 5.0; IC50 (P. falciparum 3D7; [2]): 70 nM; IC50 (P. falciparum 3D7; [3]): 349 nM; Acetyllysine [1]: -0.5963; N-acetyl-L-ornithine [1]: -0.507; N-carbamoyl-L-aspartate [1]: 4.681; NADPH [1]: 1.178; dAMP [1]: -1.417; dCMP [1]: 0.2248; dTDP [1]: -0.9712; dTMP [1]: -0.998; dTTP [1]: -0.8663; dihydroorotate [1]: 5.399; orotate [1]: -0.2345; DLH [1]: -0.3185; DLS/SDL/SID [1]: -0.4128; PD [1]: 0.2516; PEE [1]: -0.4695; PVNF [1]: -1.475; 3-phosphoglycerate [1]: 0.08815; ADP-D-glucose [1]: 0.5309; ATP [1]: -0.05125; CDP [1]: -0.6896; D-sedoheptulose-1/7-phosphate [1]: 0.1853; FAD [1]: 0.084; GMP [1]: 0.2583; NAD+ [1]: 0.00935; NADP+ [1]: 0.5726; Octoluse Bisphosphate [1]: 0.02106; Pyroglutamic acid [1]: -0.3979; UDP-D-glucose [1]: 0.01111; UDP-D-glucuronate [1]: -0.02444; UDP-N-acetyl-glucosamine [1]: -0.1642; UDP [1]: -0.997; UMP [1]: -0.7924; UTP [1]: -1.308; a-ketoglutarate [1]: -0.5125; citrate/isocitrate [1]: -0.4219; cytidine [1]: -0.1943; dATP [1]: 0.3626; dGMP/AMP [1]: 0.01292; fumarate [1]: -0.2283; glucose-1/6-phosphate [1]: -0.259; glycerate [1]: -0.6701; guanine [1]: 0.06677; guanosine [1]: 0.3651; hypoxanthine [1]: -0.6973; indole [1]: -0.3061; inosine [1]: -0.4425; 2_3-Diphosphoglyceric acid [1]: 0.2246; 4-phosphopantothenate [1]: -0.3914; 6-phospho-D-gluconate [1]: 0.1976; FMN [1]: -0.1065; IMP [1]: 0.1475; Pyrophosphate [1]: 0.2465; Sedoheptoluse bisphosphate [1]: 0.08943; cyclic-AMP [1]: -0.1063; glutathione disulfide [1]: 0.192; lactate [1]: -0.653; myo-inositol [1]: -1.111; nicotinate [1]: -0.2929; ornithine [1]: 0.09761; phosphoenolpyruvate [1]: 0.0459; pyruvate [1]: -0.6078; ribose-phosphate [1]: -0.1179; sarcosine/alanine [1]: 0.2817; sn-glycerol-3-phosphate [1]: -0.0008256; succinate/methylmalonic acid [1]: 0.03166; uridine [1]: -0.902; xanthosine [1]: 0.002012; EC50 (P. falciparum): 212 nM
